Data published in patent US12060588B2, “Methods of editing DNA methylation” (Whitehead Institute for Biomedical Research, priority 2016, dated 2024).

How the values were obtained:
[1] = tested on: MyoD distal enhancer (DMR-5); assay: Bisulfite sequencing of the MyoD DMR-5 region in C3H10T1/2 cells; assay type: cell-based, mouse; conditions: with target gRNAs, sorted infection-positive cells
Excerpt: FIGS. 4A-4H depict targeted demethylation of the MyoD distal enhancer by dCas9-Tet1 to facilitate conversion of fibroblasts to myoblasts. FIG. 4A provides a schematic representation of targeting the MyoD distal enhancer (DE) region in DMR-5 by dCas9-Tet1 (dC-T) with specific gRNAs. […] Cherry positive cells were FACS sorted for RT-qPCR analysis. Bars represent mean±SD of three experimental replicates. FIG. 4C bisulfite sequencing of cells in FIG. 4B. […] Shown is the mean percentage±SD of two biological replicates. […] FIG. 4F provides quantification of MyoD positive cell ratio 14-day post infection with lentiviruses expressing dC-T alone, dC-T with gRNAs targeting DMR-5, and dC-dT with the target gRNAs. […] FIG. 4H provides quantification of myotube density in MHC positive clusters with more than 2 or 5 nuclei at 14-days after infection. […] Data are quantified from 3-5 representative images for F-H. Bars represent mean±SD.
Six muscle-specific DMRs have been described within the 50 kb upstream region of MyoD gene (Schultz et al., 2015), and DMR-5 overlaps with a known distal enhancer of MyoD (Brunk et al., 1996) as shown in FIG. 4A. […] The cells were cultured for 14 days and analyzed for MyoD and MHC (Myosin Heavy chain, a myotube specific marker) expression. […]

[2] = tested on: MyoD distal enhancer (DMR-5) / MyoD expression; assay: MyoD expression in C3H10T1/2 cells (RT-qPCR); assay type: cell-based, mouse

dCas9-Tet1: catalytically inactive Cas9 (dCas9) fused through NLS to the Tet1 catalytic domain, SEQ ID NO: 159; lentivirally expressed with gRNAs
methylation in the DMR-5 region [1]: substantial reduction of methylation | induction of MyoD expression ([2]; MyoD DMR-5 gRNAs combined with 5-Aza treatment (48-hour)): higher induction of MyoD | induction of MyoD expression ([2]; with 4 gRNAs targeting DMR-5, C3H10T1/2 cells, 2 days, Cherry positive sorted): 3 fold
